Assay results from ChEMBL document CHEMBL5614448, “Current Trends in Psychedelic Science: Integrating Modified Lysergic Acid Derivatives and Psilocybin in Modern Medicine” (ACS Med Chem Lett, 2024).

How the values were obtained:
[1] = molecular target: T1, 5-hydroxytryptamine receptor 2A (Homo sapiens, UniProt P28223); assay: Displacement of [125I]DOI from 5-HT2A receptor (unknown origin) assessed as inhibition constant
[2] = molecular target: T1, 5-hydroxytryptamine receptor 2A; assay: Activation of human 5-HT2A receptor
[3] = molecular target: T1, 5-hydroxytryptamine receptor 2A; assay: Activation of human 5-HT2A receptor assessed as maximal activation relative to control; conditions: filed as activator

T1 sequence (P28223 whole entry): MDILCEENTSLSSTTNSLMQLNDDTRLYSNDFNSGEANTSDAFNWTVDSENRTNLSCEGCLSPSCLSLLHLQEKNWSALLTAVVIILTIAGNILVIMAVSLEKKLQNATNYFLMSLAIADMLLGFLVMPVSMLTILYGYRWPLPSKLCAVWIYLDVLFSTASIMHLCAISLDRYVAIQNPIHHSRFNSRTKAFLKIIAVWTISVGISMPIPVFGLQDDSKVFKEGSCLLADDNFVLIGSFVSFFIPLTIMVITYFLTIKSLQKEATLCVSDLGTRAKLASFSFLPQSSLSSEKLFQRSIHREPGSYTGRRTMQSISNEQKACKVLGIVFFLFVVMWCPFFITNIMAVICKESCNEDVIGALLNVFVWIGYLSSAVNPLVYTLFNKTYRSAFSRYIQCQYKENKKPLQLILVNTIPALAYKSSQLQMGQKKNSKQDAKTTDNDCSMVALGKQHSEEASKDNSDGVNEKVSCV

Structure (SMILES)	Ki [1] [nM]	EC50 [2] [nM]	max activation [3] [%]
CCN(CC(F)F)C(=O)[C@@H]1C=C2c3cccc4[nH]cc(c34)C[C@H]2N(C)C1	0.21	0.76	77
CCN(CCF)C(=O)[C@@H]1C=C2c3cccc4[nH]cc(c34)C[C@H]2N(C)C1	0.34	0.43	69
CN(CC(F)(F)F)C(=O)[C@@H]1C=C2c3cccc4[nH]cc(c34)C[C@H]2N(C)C1	0.26	9.1	72
CCN(CC#N)C(=O)[C@@H]1C=C2c3cccc4[nH]cc(c34)C[C@H]2N(C)C1	0.19	0.88	68
CN1C[C@H](C(=O)N(CCF)CC(F)F)C=C2c3cccc4[nH]cc(c34)C[C@H]21	0.43	0.25	78
CN1C[C@H](C(=O)N(CC(F)F)CC(F)F)C=C2c3cccc4[nH]cc(c34)C[C@H]21	0.33	0.9	82
C#CCN(CC)C(=O)[C@@H]1C=C2c3cccc4[nH]cc(c34)C[C@H]2N(C)C1	0.36	0.83	68
C#CCN(C)C(=O)[C@@H]1C=C2c3cccc4[nH]cc(c34)C[C@H]2N(C)C1	0.54	0.98	70
CCN(CC(F)(F)F)C(=O)[C@@H]1C=C2c3cccc4[nH]cc(c34)C[C@H]2N(C)C1	0.45	3.2	82
